Assay results taken from BindingDB's records for doi:10.7270/Q2X63KBQ (The Scripps Research Institute Molecular Screening Center, 2009).
pIC50: −log10 of the molar value.

Assays:
[1] = biological target: VIM-2 metallo β-lactamase (Pseudomonas aeruginosa, UniProt Q9K2N0); test: VIM-2 metallo-beta-lactamase inhibitor potency, dose response, biochemical, epi-absorbance readout, selective inhibitors (AID 1919)
Beta-lactamase = Beta-lactamase (Pseudomonas aeruginosa, UniProt Q932Y6); test: as above
Chain of Beta-lactamase (Q932Y6 whole entry): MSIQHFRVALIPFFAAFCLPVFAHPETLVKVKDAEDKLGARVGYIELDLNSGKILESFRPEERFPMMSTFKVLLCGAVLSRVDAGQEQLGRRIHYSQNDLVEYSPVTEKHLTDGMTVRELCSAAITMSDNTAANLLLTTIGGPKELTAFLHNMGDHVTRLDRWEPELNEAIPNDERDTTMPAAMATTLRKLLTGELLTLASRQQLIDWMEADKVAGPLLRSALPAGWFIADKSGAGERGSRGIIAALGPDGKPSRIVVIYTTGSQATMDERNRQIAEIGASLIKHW

Compound | pIC50 [1] | pIC50 (Beta-lactamase)
COc1ccc(OC)c(C=NNC(=O)Cc2c(C)[nH][nH]c2=O)c1 [SMR000147372] | 5.21 | –
COc1ccc(OC)c(C2C(C(=O)c3ccco3)C(=O)C(=O)N2Cc2cccnc2)c1 (stereo not drawn) [2-(2,5-dimethoxyphenyl)-3-(furan-2-carbonyl)-4-hydroxy-1-(pyridin-3-ylmethyl)-2H-pyrrol-5-one] | 5.71 | –
O=C1C(=O)N(Cc2cccnc2)C(c2ccccn2)C1C(=O)c1ccc(F)cc1 (stereo not drawn) [(4Z)-4-[(4-fluorophenyl)-hydroxy-methylene]-5-(2-pyridyl)-1-(3-pyridylmethyl)pyrrolidine-2,3-quinone] | 5.62 | –
Cn1c(-c2sccc2OCc2ccc(Cl)cc2Cl)n[nH]c1=S | – | 5.18
COc1cc(OC)c(OC)cc1C=NNC(=O)Cc1c(C)[nH][nH]c1=O [MLS000555854] | 5.37 | –
O=C1C(=O)N(Cc2cccnc2)C(c2ccccn2)C1C(=O)c1ccccc1 (stereo not drawn) [(4Z)-4-[hydroxy(phenyl)methylene]-5-(2-pyridyl)-1-(3-pyridylmethyl)pyrrolidine-2,3-quinone] | 5.30 | –
COc1ccc(C(=O)C2C(=O)C(=O)N(Cc3ccco3)C2c2cc(OC)ccc2OC)cc1 (stereo not drawn) [(4E)-5-(2,5-dimethoxyphenyl)-1-(2-furanylmethyl)-4-[hydroxy-(4-methoxyphenyl)methylidene]pyrrolidine-2,3-dione] | 4.89 | –
O=C1C(=O)N(Cc2cccnc2)C(c2ccccn2)C1C(=O)c1cccs1 (stereo not drawn) [3-hydroxy-5-(2-pyridinyl)-1-(3-pyridinylmethyl)-4-(2-thienylcarbonyl)-1,5-dihydro-2H-pyrrol-2-one] | 4.88 | –
